From patent publication US20070117743A1, “New antitumoral compounds” (priority 2003, published 2007)
Where two headings read alike, the source gives them in different places.

Columns and labels:
Type in all cases: cell-based, human
[1] = test system: A-549; assay: SRB colorimetric assay of cell growth and viability, A-549; details: 48 hours exposure; for GI50: read-out: GI50 A-549; for CC50: read-out: LC50 A-549
[2] = test system: SK-MEL-28; assay: SRB colorimetric assay of cell growth and viability, SK-MEL-28; details: 48 hours exposure; for CC50: read-out: LC50 MEL-28
[3] = test system: HT-29; assay: SRB colorimetric assay of cell growth and viability, HT-29; details: 48 hours exposure; for GI50: read-out: GI50 HT-29; for CC50: read-out: LC50 HT-29
[4] = test system: LoVo; assay: SRB colorimetric assay of cell growth and viability, LoVo; details: 48 hours exposure; for CC50: read-out: LC50 LOVO
[5] = test system: LoVo-Dox; assay: SRB colorimetric assay of cell growth and viability, LoVo-Dox; details: 48 hours exposure; for CC50: read-out: LC50 LOVO-DOX
Summary of the method: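 Here, cells grow drug-free for 18 h, then receive sample dilutions from 10 down to 10^−8 μg/mL for 48 h at 37° C. Protein-bound SRB is solubilized in Tris and quantified at 490 nm.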

[6] = test system: DU-145; assay: SRB colorimetric assay of cell growth and viability, DU-145; details: 48 hours exposure
[7] = test system: LNCaP; assay: SRB colorimetric assay of cell growth and viability, LNCaP; details: 48 hours exposure; for GI50: read-out: GI50 LN-caP; for CC50: read-out: LC50 LN-caP
[8] = test system: SK-BR-3; assay: SRB colorimetric assay of cell growth and viability, SK-BR-3; details: 48 hours exposure
[9] = test system: IGROV-1; assay: SRB colorimetric assay of cell growth and viability, IGROV-1; details: 48 hours exposure
[10] = test system: IGROV-ET; assay: SRB colorimetric assay of cell growth and viability, IGROV-ET; details: 48 hours exposure; for CC50: read-out: LC50 IGROV-ET
[11] = test system: HeLa; assay: SRB colorimetric assay of cell growth and viability, HeLa; details: 48 hours exposure; for CC50: read-out: LC50 HELA
[12] = test system: HeLa-APL; assay: SRB colorimetric assay of cell growth and viability, HeLa-APL; details: 48 hours exposure; for CC50: read-out: LC50 HELA-APL
[13] = test system: K-562; assay: SRB colorimetric assay of cell growth and viability, K-562; details: 48 hours exposure; for CC50: read-out: LC50 K-562
[14] = test system: PANC-1; assay: SRB colorimetric assay of cell growth and viability, PANC-1; details: 48 hours exposure; for CC50: read-out: LC50 PANC-1

For [(4RS)-MeHex^14]-KF [Compound 17], the “TGI A-549” value [1] was 7.51E−07 Molar, the GI50 [1] was 240 nM and the CC50 [1] was 2890 nM. The GI50 [2] was 1300 nM, the “TGI MEL-28” value [2] was 2.54E−06 Molar and the CC50 [2] was 4960 nM. The “TGI HT-29” value [3] was 2.84E−07 Molar, the GI50 [3] was 147 nM and the CC50 [3] was 550 nM. The GI50 [4] was 141 nM, the “TGI LOVO” value [4] was 2.67E−07 Molar and the CC50 [4] was 503 nM. The GI50 [5] was 180 nM, the “TGI LOVO-DOX” value [5] was 3.66E−07 Molar and the CC50 [5] was 1270 nM. For the same substance, the GI50 [6] was 252 nM, the LC50 (concentration causing 50% net cell kill) [6] was 2650 nM and the “TGI DU-145” value [6] was 8.39E−07 Molar. The “TGI LN-caP” value [7] was 2.10E−06 Molar, the GI50 [7] was 934 nM and the CC50 [7] was 4750 nM. For the same substance, the GI50 [8] was 162 nM, the LC50 [8] was 606 nM and the “TGI SK-BR-3” value [8] was 3.14E−07 Molar. For the same substance, the GI50 [9] was 185 nM, the LC50 (concentration causing 50% net cell killing) [9] was 1490 nM and the “TGI IGROV” value [9] was 3.96E−07 Molar. The GI50 [10] was 209 nM, the “TGI IGROV-ET” value [10] was 4.24E−07 Molar and the CC50 [10] was 1840 nM. For the same substance, the GI50 [11] was 744 nM, the “TGI HELA” value [11] was 1.71E−06 Molar and the CC50 [11] was 3920 nM. For the same substance, the GI50 [12] was 758 nM, the “TGI HELA-APL” value [12] was 1.86E−06 Molar and the CC50 [12] was 4590 nM. The GI50 [13] was 2370 nM, the “TGI K-562” value [13] was 4.07E−06 Molar and the CC50 [13] was ≥ 6770 nM. For the same substance, the GI50 [14] was 3820 nM, the “TGI PANC-1” value [14] was 6.77E−06 Molar and the CC50 [14] was ≥ 6770 nM.

With [(c/t)-4-Me-cHexa^14]-KF [Compound 14] the “TGI A-549” value [1] was 2.15E−06 Molar, the GI50 [1] was 933 nM and the CC50 [1] was 4950 nM. For the same substance, the GI50 [2] was 886 nM, the “TGI MEL-28” value [2] was 1.89E−06 Molar and the CC50 [2] was 4010 nM. The “TGI HT-29” value [3] was 4.22E−07 Molar, the GI50 [3] was 189 nM and the CC50 [3] was 1830 nM. The GI50 [4] was 99.3 nM, the “TGI LOVO” value [4] was 2.34E−07 Molar and the CC50 [4] was 550 nM. The GI50 [5] was 144 nM, the “TGI LOVO-DOX” value [5] was 2.88E−07 Molar and the CC50 [5] was 576 nM. For the same substance, the GI50 [6] was 612 nM, the LC50 (concentration causing 50% net cell kill) [6] was 3360 nM and the “TGI DU-145” value [6] was 1.48E−06 Molar. The “TGI LN-caP” value [7] was 2.87E−06 Molar, the GI50 [7] was 1340 nM and the CC50 [7] was 6110 nM. For the same substance, the GI50 [8] was 152 nM, the LC50 [8] was 657 nM and the “TGI SK-BR-3” value [8] was 3.17E−07 Molar. The GI50 [9] was 382 nM, the LC50 (concentration causing 50% net cell killing) [9] was 3470 nM and the “TGI IGROV” value [9] was 1.22E−06 Molar. For the same substance, the GI50 [10] was 846 nM, the “TGI IGROV-ET” value [10] was 1.94E−06 Molar and the CC50 [10] was 4470 nM. The GI50 [11] was 779 nM, the “TGI HELA” value [11] was 1.84E−06 Molar and the CC50 [11] was 4370 nM. The GI50 [12] was 611 nM, the “TGI HELA-APL” value [12] was 1.72E−06 Molar and the CC50 [12] was 4560 nM. The GI50 [13] was 2020 nM, the “TGI K-562” value [13] was 3.58E−06 Molar and the CC50 [13] was 6320 nM. For the same substance, the GI50 [14] was 2010 nM, the “TGI PANC-1” value [14] was 6.71E−06 Molar and the CC50 [14] was 6710 nM.

With [D,L-Ser^2]-KF [Compound 64] the “TGI A-549” value ([1]; SRB) was 6.75E−06 Molar, the GI50 ([1]; SRB) was ≥ 6750 nM and the CC50 ([1]; SRB) was ≥ 6750 nM. The GI50 [2] was ≥ 6750 nM, the “TGI MEL-28” value [2] was 6.75E−06 Molar and the CC50 [2] was ≥ 6750 nM. For the same substance, the “TGI HT-29” value ([3]; SRB) was 6.75E−06 Molar, the GI50 ([3]; SRB) was ≥ 6750 nM and the CC50 ([3]; SRB) was ≥ 6750 nM. For the same substance, the GI50 ([4]; SRB) was ≥ 6750 nM, the “TGI LOVO” value ([4]; SRB) was 6.75E−06 Molar and the CC50 ([4]; SRB) was ≥ 6750 nM. The GI50 ([5]; SRB) was ≥ 6750 nM, the “TGI LOVO-DOX” value ([5]; SRB) was 6.75E−06 Molar and the CC50 ([5]; SRB) was ≥ 6750 nM. For the same substance, the GI50 [6] was ≥ 6750 nM, the LC50 (concentration causing 50% net cell kill) [6] was ≥ 6750 nM and the “TGI DU-145” value [6] was 6.75E−06 Molar. The “TGI LN-caP” value [7] was 3.99E−06 Molar, the GI50 [7] was 1800 nM and the CC50 [7] was ≥ 6750 nM. The GI50 [8] was ≥ 6750 nM, the LC50 [8] was ≥ 6750 nM and the “TGI SK-BR-3” value [8] was 6.75E−06 Molar. The GI50 [9] was ≥ 6750 nM, the LC50 (concentration causing 50% net cell killing) [9] was ≥ 6750 nM and the “TGI IGROV” value [9] was 6.75E−06 Molar. The GI50 [10] was ≥ 6750 nM, the “TGI IGROV-ET” value [10] was 6.75E−06 Molar and the CC50 [10] was ≥ 6750 nM. The GI50 ([11]; SRB) was ≥ 6750 nM, the “TGI HELA” value ([11]; SRB) was 6.75E−06 Molar and the CC50 ([11]; SRB) was ≥ 6750 nM. For the same substance, the GI50 ([12]; SRB) was ≥ 6750 nM, the “TGI HELA-APL” value ([12]; SRB) was 6.75E−06 Molar and the CC50 ([12]; SRB) was ≥ 6750 nM. For the same substance, the GI50 ([13]; SRB) was ≥ 6750 nM, the “TGI K-562” value ([13]; SRB) was 6.75E−06 Molar and the CC50 ([13]; SRB) was ≥ 6750 nM. The GI50 ([14]; SRB) was ≥ 6750 nM, the “TGI PANC-1” value ([14]; SRB) was 6.75E−06 Molar and the CC50 ([14]; SRB) was ≥ 6750 nM.
